Results reported in a compilation of properties of binary mixtures (doi:10.1007/s10953-016-0490-x).

Experiment: xn = mol fraction of the nth substance listed
Details: 100 kPa

CCCC[n+]1ccn(C)c1.O=S(=O)([O-])C(F)(F)F + CCOC(C)=O
Details	speed of sound [m/s]	viscosity [mPa·s]
298.15 K, x1 = 0.0991	1172.2	1.27
298.15 K, x1 = 0.1916	1209.8	4.59
298.15 K, x1 = 0.3056	1252.1	10.8
298.15 K, x1 = 0.3978	1279.4	16
298.15 K, x1 = 0.5067	1310.3	22
298.15 K, x1 = 0.7138	1361.8	35
298.15 K, x1 = 0.7987	1374.2	41.8
298.15 K, x1 = 1	1393.2	82
303.15 K, x1 = 0.0991	1153.5	0.99
303.15 K, x1 = 0.1916	1191.9	3.76
303.15 K, x1 = 0.3056	1236.1	9
303.15 K, x1 = 0.5067	1296.5	18.5
303.15 K, x1 = 0.6095	1324.9	23.6
303.15 K, x1 = 0.7138	1349.9	29.1
303.15 K, x1 = 0.7987	1362.1	34.7
303.15 K, x1 = 0.8932	1371.6	44.9
308.15 K, x1 = 0.0991	1132.8	0.89
308.15 K, x1 = 0.1916	1174	3.12
308.15 K, x1 = 0.3056	1220.2	7.3
308.15 K, x1 = 0.3978	1251.5	10.8
308.15 K, x1 = 0.5067	1282.6	15.1
308.15 K, x1 = 0.6095	1312.1	19.6
308.15 K, x1 = 0.7138	1338.2	24.6
308.15 K, x1 = 0.7987	1351	29.1
308.15 K, x1 = 0.8932	1359.7	37.1
308.15 K, x1 = 1	1371.7	53
313.15 K, x1 = 0.1916	1156.4	2.89
313.15 K, x1 = 0.3056	1204.4	6.6
313.15 K, x1 = 0.3978	1237.6	9.8
313.15 K, x1 = 0.5067	1268.7	13.5
313.15 K, x1 = 0.6095	1300.4	17.1
313.15 K, x1 = 0.7138	1326.8	20.9
313.15 K, x1 = 0.7987	1338.3	24.6
313.15 K, x1 = 0.8932	1349.5	31
318.15 K, x1 = 0.0991	1091.7	0.79
318.15 K, x1 = 0.3056	1188.6	5.8
318.15 K, x1 = 0.3978	1223.7	8.5
318.15 K, x1 = 0.5067	1254	11.7
318.15 K, x1 = 0.6095	1288	14.8
318.15 K, x1 = 0.7138	1314.3	18
318.15 K, x1 = 0.7987	1326.4	21.1
318.15 K, x1 = 0.8932	1337.3	26.2
323.15 K, x1 = 0.0991	1071.3	0.75
323.15 K, x1 = 0.1916	1120.7	2.26
323.15 K, x1 = 0.3056	1172.8	5
323.15 K, x1 = 0.3978	1210.9	7.2
323.15 K, x1 = 0.5067	1240.3	9.9
323.15 K, x1 = 0.6095	1274.9	12.9
323.15 K, x1 = 0.7138	1303.2	15.6
323.15 K, x1 = 1	1338.8	30.6

CCOC(C)=O + CCCC[n+]1ccn(C)c1.O=S(=O)([O-])C(F)(F)F
x2 = 0
Details	speed of sound [m/s]	viscosity [mPa·s]
303.15 K	1118.3	0.4
308.15 K	1096	0.37
313.15 K	1073.7	0.35
318.15 K	1051.7	0.34
323.15 K	1029.5	0.33
